Values of other authors in paper PMC7148434, “ACE-domain selectivity extends beyond direct interacting residues at the active site” (Biochemical Journal, 2020).
Several values for one entry are separate records, joined by “and”; a condition that tells them apart may be missing. Identical values can stand only once.

Experiments:
[1] = target: S′-nACE (S260T, E262S, D354E, S357V, T358V and E431D) (Homo sapiens, UniProt P12821, D383E/E291S/E460D/S289T/S386V/T387V); parameters: The truncated (single domain) wild-type N-domain (nACE), wild-type C-domain (cACE) and N-domain mutant constructs; made in house; host or cells: CHO-K1; conditions: cited from earlier work
[2] = target: S2_S′-nACE (S260T, E262S, D354E, S357V, T358V, Y369F, R381E and E431D) (Homo sapiens, UniProt P12821, D383E/E291S/E460D/R410E/S289T/S386V/T387V/Y398F); parameters: The truncated (single domain) wild-type N-domain (nACE), wild-type C-domain (cACE) and N-domain mutant constructs; made in house; host or cells: CHO-K1; conditions: cited from earlier work
[3] = target: cACE (Homo sapiens, UniProt P12821); parameters: The truncated (single domain) wild-type N-domain (nACE), wild-type C-domain (cACE) and N-domain mutant constructs; made in house; host or cells: CHO-K1; method as in Lubbe et al. [23]; conditions: ref Lubbe et al. [23]; cited from earlier work
[4] = target: nACE (Homo sapiens, UniProt P12821); parameters: The truncated (single domain) wild-type N-domain (nACE), wild-type C-domain (cACE) and N-domain mutant constructs; made in house; host or cells: CHO-K1; conditions: nACE; ref Lubbe et al. [23]; cited from earlier work
[5] = test system: nACE; conditions: cited from earlier work
[6] = target: S2-nACE (Y369F and R381E) (Homo sapiens, UniProt P12821, R410E/Y398F); parameters: The truncated (single domain) wild-type N-domain (nACE), wild-type C-domain (cACE) and N-domain mutant constructs; made in house; host or cells: CHO-K1; conditions: cited from earlier work
Chain of S2-nACE (Y369F and R381E) (P12821 40-624 Y398F/R410E): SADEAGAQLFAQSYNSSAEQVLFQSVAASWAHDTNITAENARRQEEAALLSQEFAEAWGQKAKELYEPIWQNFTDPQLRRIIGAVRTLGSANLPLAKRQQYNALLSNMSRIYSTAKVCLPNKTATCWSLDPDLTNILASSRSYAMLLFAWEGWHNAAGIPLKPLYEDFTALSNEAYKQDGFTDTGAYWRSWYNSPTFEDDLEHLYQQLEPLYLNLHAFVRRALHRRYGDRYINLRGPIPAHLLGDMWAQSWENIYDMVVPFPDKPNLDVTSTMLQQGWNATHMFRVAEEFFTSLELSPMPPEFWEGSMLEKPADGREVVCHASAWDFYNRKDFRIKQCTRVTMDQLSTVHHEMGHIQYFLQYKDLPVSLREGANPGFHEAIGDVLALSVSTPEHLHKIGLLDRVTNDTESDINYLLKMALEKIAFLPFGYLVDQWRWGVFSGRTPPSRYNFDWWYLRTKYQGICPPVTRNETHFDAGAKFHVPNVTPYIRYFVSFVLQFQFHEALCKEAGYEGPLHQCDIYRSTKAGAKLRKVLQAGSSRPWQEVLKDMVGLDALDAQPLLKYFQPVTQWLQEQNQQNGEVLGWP

Chain of S′-nACE (S260T, E262S, D354E, S357V, T358V and E431D) (P12821 40-624 S289T/E291S/D383E/S386V/T387V/E460D): as the sequence (P12821 40-624 Y398F/R410E) above, with S250T, E252S, D344E, S347V, T348V, F359Y, E371R, E421D counted along it
Chain of S2_S′-nACE (S260T, E262S, D354E, S357V, T358V, Y369F, R381E and E431D) (P12821 40-624 S289T/E291S/D383E/S386V/T387V/Y398F/R410E/E460D): as the sequence (P12821 40-624 Y398F/R410E) above, with S250T, E252S, D344E, S347V, T348V, E421D counted along it
Chain of nACE (Homo sapiens, UniProt P12821) (P12821 40-624 limits assumed): as the sequence (P12821 40-624 Y398F/R410E) above, with F359Y, E371R counted along it
Chain of cACE (P12821 643-1222 limits assumed): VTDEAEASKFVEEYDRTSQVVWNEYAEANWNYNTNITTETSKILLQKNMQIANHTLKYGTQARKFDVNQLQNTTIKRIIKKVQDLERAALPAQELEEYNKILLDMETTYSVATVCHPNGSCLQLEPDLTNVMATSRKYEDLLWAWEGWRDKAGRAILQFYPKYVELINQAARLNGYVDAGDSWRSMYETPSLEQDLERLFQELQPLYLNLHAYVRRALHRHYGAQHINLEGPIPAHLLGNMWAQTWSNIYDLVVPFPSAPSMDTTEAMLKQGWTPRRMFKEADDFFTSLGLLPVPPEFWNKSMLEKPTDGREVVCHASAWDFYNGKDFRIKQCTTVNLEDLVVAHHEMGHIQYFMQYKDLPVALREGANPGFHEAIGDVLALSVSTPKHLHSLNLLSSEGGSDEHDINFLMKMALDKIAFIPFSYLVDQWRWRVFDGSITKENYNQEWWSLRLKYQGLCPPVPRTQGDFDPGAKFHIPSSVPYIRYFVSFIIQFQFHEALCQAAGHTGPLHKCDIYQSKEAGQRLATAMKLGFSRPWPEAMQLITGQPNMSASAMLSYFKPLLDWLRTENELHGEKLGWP

In the case of `C[C@H](CP(=O)(O)[C@H](Cc1ccccc1)NC(=O)C(N)Cc1nnn[nH]1)C(=O)N[C@@H](C)C(N)=O` (stereo partly drawn) [33RE], the “Selectivity (Ki cACE/Ki nACE or mutant)” value ([1]; Ki cACE / Ki S′-nACE, ref Lubbe et al. [23]) is given as 48, the “decrease in binding affinity compared with nACE” value (“decrease in binding affinity” for short) ([1]; S′-nACE relative to nACE) is given as 22 fold and the Ki ([1]; S′-nACE, ref Lubbe et al. [23]) is given as 237 ± 13.6 nM. The “Selectivity (Ki cACE/Ki nACE or mutant)” value ([2]; Ki cACE / Ki S2_S′-nACE, ref Lubbe et al. [23]) was 1.1, the “decrease in binding affinity” value ([2]; S2_S′-nACE relative to nACE) was 900 fold and the “Selectivity (Ki cACE/Ki nACE or mutant)” value [3] was 1. For the same compound, the Ki [4] was 11.2 ± 0.735 nM, the “Selectivity (Ki cACE/Ki nACE or mutant)” value ([5]; Ki cACE / Ki nACE (N-selectivity), ref Lubbe et al. [23]) was 1000 and 1006 and the “selectivity over cACE” value ([5]; nACE over cACE, previous kinetic studies) was ~1000 fold. The “Selectivity (Ki cACE/Ki nACE or mutant)” value ([6]; Ki cACE / Ki S2-nACE, ref Lubbe et al. [23]) was 4, the “decrease in binding affinity” value ([6]; S2-nACE relative to nACE) was 254 fold and the Ki ([6]; S2-nACE, ref Lubbe et al. [23]) was 2790 ± 156 nM.
